In paper PMC10982999, “Structure-Guided Design and Optimization of Covalent VHL-Targeted Sulfonyl Fluoride PROTACs” (Journal of Medicinal Chemistry, 2024):

Key:
AR-HiBiT LNCaP cells = settings: 16 h, 75 μM-1 pM
[1] = molecular target: T1, AR (AR-HiBiT LNCaP cells) (Homo sapiens, UniProt P10275, T878A); experiment: AR HiBiT degradation assay; type: cell-based; settings: for Dmax / DC50: LNCaP; for Dmax: read-out: Dmax (AR degradation); for AR degradation in presence of MLN4924: MLN4924 1 μM 3 h pretreatment, then compound 18 h; for AR degradation in presence of epoxomicin: epoxomicin 1 μM 3 h pretreatment, then compound 16 h; for DC50: read-out: DC50 (AR degradation), 16 h
T1 construct: host or cells: AR-HiBiT KI LNCaP
T1 sequence (P10275 1-920 T878A): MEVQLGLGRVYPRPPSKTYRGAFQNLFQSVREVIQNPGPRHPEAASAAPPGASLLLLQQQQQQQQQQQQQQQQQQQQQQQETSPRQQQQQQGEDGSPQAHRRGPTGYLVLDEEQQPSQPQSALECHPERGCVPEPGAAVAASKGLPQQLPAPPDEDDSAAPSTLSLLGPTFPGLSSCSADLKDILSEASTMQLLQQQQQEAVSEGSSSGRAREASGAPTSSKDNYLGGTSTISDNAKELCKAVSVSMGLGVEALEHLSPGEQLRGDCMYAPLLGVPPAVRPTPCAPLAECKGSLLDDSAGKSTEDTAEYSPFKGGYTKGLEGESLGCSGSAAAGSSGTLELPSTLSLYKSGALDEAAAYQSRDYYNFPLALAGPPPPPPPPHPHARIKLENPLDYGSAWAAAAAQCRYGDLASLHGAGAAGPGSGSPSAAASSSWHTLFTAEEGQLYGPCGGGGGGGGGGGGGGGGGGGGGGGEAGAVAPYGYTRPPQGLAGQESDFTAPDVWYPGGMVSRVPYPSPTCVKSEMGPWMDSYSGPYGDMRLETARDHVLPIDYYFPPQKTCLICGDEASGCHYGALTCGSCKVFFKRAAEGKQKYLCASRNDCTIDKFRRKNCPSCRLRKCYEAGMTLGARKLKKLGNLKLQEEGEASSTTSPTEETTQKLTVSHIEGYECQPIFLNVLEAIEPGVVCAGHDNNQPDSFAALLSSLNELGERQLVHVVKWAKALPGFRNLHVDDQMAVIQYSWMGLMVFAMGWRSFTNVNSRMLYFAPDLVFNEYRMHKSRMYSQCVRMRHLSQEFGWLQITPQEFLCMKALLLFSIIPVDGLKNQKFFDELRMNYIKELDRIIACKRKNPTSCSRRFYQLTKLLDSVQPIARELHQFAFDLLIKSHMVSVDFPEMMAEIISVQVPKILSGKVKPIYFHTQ
Experimental: Cellular BRD4/AR HiBiT assay
The HiBiT tagged cells were seeded at 10,000 cells per well in a 384-well plate (Thermo Scientific, 164610) at 25 µL per well in DMEM media containing 10% FBS and incubated overnight. Compounds were dispensed using D300e Digital Dispenser (HP) and normalized to 0.1% DMSO. Cells were pre-treated with Epoxomicin or MLN4924 for 3 h before treatment […]
Nano -Glo HiBiT lytic detection assay was performed as described in the manufacturer protocol (Promega). 25 µL of premixed detection reagent was added to each well of the 384 well assay plate and incubated for 15 min on an orbital shaker (at 600 RPM), and luminescence was read using a PHERAstar FS plate reader (BMG Labtech). Corresponding background RLU values were subtracted from DMSO control values and the percentage of protein (%) of were then calculated against […]
DMSO-treated controls. […]
1:1000 WB), Tubulin (Sigma #4967S 1:5000 WB).

physchem = settings: buffer
Experimental: Table S1. Sulfonyl fluoride warhead stability for VHL-SF1 and VHL-SF2 was determined in
(1 picture or pasted object on this page, not shown here)

[2] = molecular target: T2, VCB and FAM-conjugated HIF1α-derived peptide interaction (Homo sapiens, UniProt P40337); experiment: Competitive fluorescence polarization (FP) assay, VCB / FAM-conjugated HIF1α-derived peptide; type: binding; settings: concentrations up to 100 μM, 2 h pre-incubation with VCB
T2 construct: human VHL (UniPort entry P40337, residues 1 -213); 6xHis followed by TEV site (N, cleaved yes); made in house; host or cells: E. coli One Shot BL21(DE3)
Experimental: We next focused on developing a second generation covalent VHL binder with enhanced potency and occupancy.
Figure 2 (A) Structure of VHL-SF2. […] (E) Competition pull-down assay from live cells between VHL-SF2-Biotin and VHL-SF2. HEK293T cells were pretreated with DMSO or varying concentrations of VHL-SF2 for 2 h at 37 °C. The cells were lysed and treated with DMSO or VHL-SF2-Biotin (50 μM) for 2 h at room temperature. A pull-down with streptavidin beads was conducted, after which the protein was resolved on SDS/PAGE. VHL and loading control GAPDH levels were visualized by Western blotting.
Figure S3. (A) Gel-based VHL labelling of VHL-SF1-Biotin, and (B) VHL-SF2-Biotin. VCB protein was pre-treated with DMSO, VHL-SF1-Biotin or VHL-SF2-Biotin for 2 h at room temperature, after which protein was resolved on SDS -PAGE and visualised by Neutravidin […]
Figure S4. Dose-response of VHL-SF1 following a 2 h pre-incubation in the presence of VCB and FAM-conjugated HIF1α-derived peptide, assessed by fluorescence polarization. Data […]
Figure S5. (A) VCB was incubated with DMSO for 24 h and subjected to intact-protein LC-MS (VHL: 24784 Da). […]
Fluorescence polarization assay protocol […]
well plate and the plate was shaken for 1 min, before reading fluorescence polarization on a Perkin Elmer Envision 2101 plate reader (excitation 486 nm, emission 535 nm). […]

| SMILES | cytotoxicity (CellTiter-Glo) (AR-HiBiT LNCaP cells) | Dmax [1] [%] | AR degradation in presence of MLN4924 [1] | AR degradation in presence of epoxomicin [1] | DC50 [1] [nM] | half-life (physchem; pH 6) [h] | half-life (physchem; pH 7.5) [h] | displacement of fluorophore-labeled HIF1α peptide [2] |
| --- | --- | --- | --- | --- | --- | --- | --- | --- |
| Cc1cc([C@H](C(=O)N2C[C@H](S(=O)(=O)F)C[C@H]2C(=O)N[C@@H](CC(=O)N2CCC(C#Cc3ccc(C(=O)N[C@H]4C(C)(C)[C@H](Oc5ccc(C#N)c(Cl)c5)C4(C)C)cc3)CC2)c2ccc(-c3scnc3C)cc2)C(C)C)on1 [AR2-VHL-SF2, (3R,5S)-5-(((S)-3-(4-((4-(((1r,3r)-3-(3-Chloro-4-cyanophenoxy)-2,2,4,4-tetramethylcyclobutyl)-carbamoyl)phenyl)ethynyl)piperidin-1-yl)-1-(4-(4-methylthiazol-5-yl)phenyl)-3-oxopropyl)-carbamoyl)-1-((R)-3-methyl-2-(3-methylisoxazol-5-yl)butanoyl)pyrrolidine-3-sulfonyl fluoride] | did not exhibit cytotoxicity | 59 | AR degradation blockade | AR degradation blockade | 212 | – | – | – |
| Cc1cc([C@H](C(=O)N2C[C@H](S(=O)(=O)F)C[C@H]2C(=O)N[C@@H](CC(=O)N2CCC(C#Cc3ccc(C(=O)N[C@H]4C(C)(C)[C@H](Oc5ccc(C#N)c(C(F)(F)F)c5)C4(C)C)cc3)CC2)c2ccc(-c3scnc3C)cc2)C(C)C)on1 [AR-VHL-SF2, (3R,5S)-5-(((S)-3-(4-((4-(((1r,3r)-3-(4-Cyano-3-(trifluoromethyl)phenoxy)-2,2,4,4-tetramethyl-cyclobutyl)carbamoyl)phenyl)ethynyl)piperidin-1-yl)-1-(4-(4-methylthiazol-5-yl)phenyl)-3-oxo-propyl)carbamoyl)-1-((R)-3-methyl-2-(3-methylisoxazol-5-yl)butanoyl)pyrrolidine-3-sulfonyl fluoride] | did not exhibit cytotoxicity | 54 | AR degradation blockade | AR degradation blockade | 527 | – | – | – |
| CC(=O)N[C@H](C(=O)N1C[C@H](S(=O)(=O)F)C[C@H]1C(=O)NCc1ccc(-c2scnc2C)cc1)C(C)(C)C [VHL-SF1, (3R,5S)-1-((S)-2-Acetamido-3,3-dimethylbutanoyl)-5-((4-(4-methylthiazol-5-yl)benzyl)carbamoyl)-pyrrolidine-3-sulfonyl fluoride] | – | – | – | – | – | 15 | 0.55 | unable to displace |
